# Biological target: CDK4 (Homo sapiens, UniProt P11802+Q16531)
# Test: CDK4 percentage degradation in Calu-1 cells (Table 6)
# Type: cell-based
# Design: Cells that express cyclin D1-3 and CDK4/6 proteins were treated with heterobifunctional compounds; endogenous in cells; host or cells: Calu-1
# Conditions: 16 hours; for inhibition at 0.04 µM: 40 nM; for inhibition at 0.2 µM: 200 nM
# In short: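 Calu-1 cells exposed to heterobifunctional compounds at 40 nM or 200 nM for 16 h. Cyclin D1 and CDK4 levels measured by Western blot of RIPA lysates (BCA-normalised loading), bands quantified by densitometry and expressed as percentage degradation.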
# Chain of CDK4 (P11802 2-303 limits assumed): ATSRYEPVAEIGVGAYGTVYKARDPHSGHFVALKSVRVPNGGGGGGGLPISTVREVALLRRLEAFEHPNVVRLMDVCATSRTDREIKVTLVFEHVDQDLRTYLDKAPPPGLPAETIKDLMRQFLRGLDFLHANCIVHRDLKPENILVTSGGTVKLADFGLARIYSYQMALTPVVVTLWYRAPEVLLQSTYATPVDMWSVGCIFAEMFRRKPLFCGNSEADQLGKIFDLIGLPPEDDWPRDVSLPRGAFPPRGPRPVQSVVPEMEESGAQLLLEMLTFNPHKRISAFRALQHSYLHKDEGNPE
# Chain of CDK4 (P24385 whole entry partner): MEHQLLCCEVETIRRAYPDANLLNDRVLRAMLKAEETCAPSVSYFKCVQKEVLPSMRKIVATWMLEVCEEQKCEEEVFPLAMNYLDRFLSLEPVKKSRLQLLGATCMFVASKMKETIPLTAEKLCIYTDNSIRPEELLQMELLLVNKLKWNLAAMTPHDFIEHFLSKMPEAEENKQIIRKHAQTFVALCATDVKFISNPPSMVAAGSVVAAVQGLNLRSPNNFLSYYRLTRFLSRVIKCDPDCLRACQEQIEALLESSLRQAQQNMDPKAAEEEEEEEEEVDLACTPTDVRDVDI
# Chain of CDK4 (Q16531 2-1140 limits assumed): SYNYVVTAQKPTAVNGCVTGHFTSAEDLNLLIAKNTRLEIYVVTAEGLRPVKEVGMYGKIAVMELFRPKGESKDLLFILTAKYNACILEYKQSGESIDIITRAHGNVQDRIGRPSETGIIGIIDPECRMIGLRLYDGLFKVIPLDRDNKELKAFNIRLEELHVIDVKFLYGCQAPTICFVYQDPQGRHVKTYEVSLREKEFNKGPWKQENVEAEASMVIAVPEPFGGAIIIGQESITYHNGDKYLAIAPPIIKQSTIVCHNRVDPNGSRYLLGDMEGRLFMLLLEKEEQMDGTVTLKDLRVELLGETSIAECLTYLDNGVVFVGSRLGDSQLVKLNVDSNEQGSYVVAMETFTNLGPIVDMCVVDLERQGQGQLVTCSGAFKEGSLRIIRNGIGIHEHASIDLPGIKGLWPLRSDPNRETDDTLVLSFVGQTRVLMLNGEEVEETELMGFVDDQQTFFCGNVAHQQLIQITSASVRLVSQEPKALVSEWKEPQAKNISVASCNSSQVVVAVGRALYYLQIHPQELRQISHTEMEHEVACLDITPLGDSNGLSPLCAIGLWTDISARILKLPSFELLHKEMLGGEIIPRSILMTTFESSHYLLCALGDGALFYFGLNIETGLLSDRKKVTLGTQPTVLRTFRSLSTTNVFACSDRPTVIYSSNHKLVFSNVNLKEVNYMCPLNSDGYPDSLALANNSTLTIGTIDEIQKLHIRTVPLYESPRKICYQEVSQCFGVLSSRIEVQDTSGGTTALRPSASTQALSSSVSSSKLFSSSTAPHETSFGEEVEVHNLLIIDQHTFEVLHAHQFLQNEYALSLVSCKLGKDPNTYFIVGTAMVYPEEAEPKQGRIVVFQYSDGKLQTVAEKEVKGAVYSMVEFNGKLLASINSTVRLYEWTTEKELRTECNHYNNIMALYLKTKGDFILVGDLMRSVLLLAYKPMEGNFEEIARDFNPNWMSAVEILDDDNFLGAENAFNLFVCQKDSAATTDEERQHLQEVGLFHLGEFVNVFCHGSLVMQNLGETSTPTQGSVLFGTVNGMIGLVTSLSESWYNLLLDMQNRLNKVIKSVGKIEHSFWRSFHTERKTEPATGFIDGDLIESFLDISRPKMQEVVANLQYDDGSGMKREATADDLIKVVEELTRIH
smiles,measurement,value
"CNc1ccc(C(=O)Nc2cccc(N)n2)c(NC2CC3(CC(NC(=O)CN4CCN(c5ccc(Nc6ncc7c(C)c(C(C)=O)c(=O)n(C8CCCC8)c7n6)nc5)CC4)C3)C2)n1 (stereo not shown) [CPD-180, 2-((6-(2-(4-(6-((6-acetyl-8-cyclopentyl-5-methyl-7-oxo-7,8-dihydropyrido[2,3-d]pyrimidin-2-yl)amino)pyridin-3-yl)piperazin-1-yl)acetamido)spiro[3.3]heptan-2-yl)amino)-N-(6-aminopyridin-2-yl)-6-(methylamino)nicotinamide]",inhibition at 0.04 µM,< 30%
same,inhibition at 0.2 µM,30 to 50%
"CNc1cccc(NC(=O)c2ccc(NC)nc2NC2CC3(CC(NC(=O)CN4CCN(c5ccc(Nc6ncc7c(C)c(C(C)=O)c(=O)n(C8CCCC8)c7n6)nc5)CC4)C3)C2)n1 (stereo not shown) [CPD-181, 2-((6-(2-(4-(6-((6-acetyl-8-cyclopentyl-5-methyl-7-oxo-7,8-dihydropyrido[2,3-d]pyrimidin-2-yl)amino)pyridin-3-yl)piperazin-1-yl)acetamido)spiro[3.3]heptan-2-yl)amino)-6-(methylamino)-N-(6-(methylamino)pyridin-2-yl)nicotinamide]",inhibition at 0.04 µM,30 to 50%
same,inhibition at 0.2 µM,50 to 80%
"CNc1ccc(C(=O)Nc2ccc(C)c(C)n2)c(NC2CC3(CC(NC(=O)CN4CCN(c5ccc(Nc6ncc7c(C)c(C(C)=O)c(=O)n(C8CCCC8)c7n6)nc5)CC4)C3)C2)n1 (stereo not shown) [CPD-182, 2-((6-(2-(4-(6-((6-acetyl-8-cyclopentyl-5-methyl-7-oxo-7,8-dihydropyrido[2,3-d]pyrimidin-2-yl)amino)pyridin-3-yl)piperazin-1-yl)acetamido)spiro[3.3]heptan-2-yl)amino)-N-(5,6-dimethylpyridin-2-yl)-6-(methylamino)nicotinamide]",inhibition at 0.04 µM,30 to 50%
same,inhibition at 0.2 µM,30 to 50%
"CNc1ccc(C(=O)Nc2ccn(C)c2)c(NC2CC3(CC(NC(=O)CN4CCN(c5ccc(Nc6ncc7c(C)c(C(C)=O)c(=O)n(C8CCCC8)c7n6)nc5)CC4)C3)C2)n1 (stereo not shown) [CPD-183, 2-((6-(2-(4-(6-((6-acetyl-8-cyclopentyl-5-methyl-7-oxo-7,8-dihydropyrido[2,3-d]pyrimidin-2-yl)amino)pyridin-3-yl)piperazin-1-yl)acetamido)spiro[3.3]heptan-2-yl)amino)-N-(1-methyl-1H-pyrrol-3-yl)-6-(methylamino)nicotinamide]",inhibition at 0.04 µM,50 to 80%
same,inhibition at 0.2 µM,50 to 80%
"CNc1ccc(C(=O)Nc2cccc(C(F)F)n2)c(NC2CC3(CC(NC(=O)CN4CCN(c5ccc(Nc6ncc7c(C)c(C(C)=O)c(=O)n(C8CCCC8)c7n6)nc5)CC4)C3)C2)n1 (stereo not shown) [CPD-184, 2-((6-(2-(4-(6-((6-acetyl-8-cyclopentyl-5-methyl-7-oxo-7,8-dihydropyrido[2,3-d]pyrimidin-2-yl)amino)pyridin-3-yl)piperazin-1-yl)acetamido)spiro[3.3]heptan-2-yl)amino)-N-(6-(difluoromethyl)pyridin-2-yl)-6-(methylamino)nicotinamide]",inhibition at 0.04 µM,50 to 80%
same,inhibition at 0.2 µM,50 to 80%
"CNc1ccc(C(=O)Nc2ccc(N(C)C)nn2)c(NC2CC(CCC(=O)N3CCN(c4ccc(Nc5ncc6c(C)c(C(C)=O)c(=O)n(C7CCCC7)c6n5)nc4)CC3)C2)n1 (stereo not shown) [CPD-185, 2-((3-(3-(4-(6-((6-acetyl-8-cyclopentyl-5-methyl-7-oxo-7,8-dihydropyrido[2,3-d]pyrimidin-2-yl)amino)pyridin-3-yl)piperazin-1-yl)-3-oxopropyl)cyclobutyl)amino)-N-(6-(dimethylamino)pyridazin-3-yl)-6-(methylamino)nicotinamide]",inhibition at 0.04 µM,< 30%
same,inhibition at 0.2 µM,30 to 50%
"CNc1ccc(C(=O)Nc2ccc(N(C)C)nn2)c(NC2CN(C(=O)CN3CCN(c4ccc(Nc5ncc6c(C)c(C(C)=O)c(=O)n(C7CCCC7)c6n5)nc4)CC3)C2)n1 [CPD-187, 2-((1-(2-(4-(6-((6-acetyl-8-cyclopentyl-5-methyl-7-oxo-7,8-dihydropyrido[2,3-d]pyrimidin-2-yl)amino)pyridin-3-yl)piperazin-1-yl)acetyl)azetidin-3-yl)amino)-N-(6-(dimethylamino)pyridazin-3-yl)-6-(methylamino)nicotinamide]",inhibition at 0.04 µM,< 30%
same,inhibition at 0.2 µM,50 to 80%
"CNc1ccc(C(=O)Nc2ccc(N(C)C)nn2)c(NCC2CC(CNC(=O)CN3CCN(c4ccc(Nc5ncc6c(C)c(C(C)=O)c(=O)n(C7CCCC7)c6n5)nc4)CC3)C2)n1 (stereo not shown) [CPD-188, 2-(((3-((2-(4-(6-((6-acetyl-8-cyclopentyl-5-methyl-7-oxo-7,8-dihydropyrido[2,3-d]pyrimidin-2-yl)amino)pyridin-3-yl)piperazin-1-yl)acetamido)methyl)cyclobutyl)methyl)amino)-N-(6-(dimethylamino)pyridazin-3-yl)-6-(methylamino)nicotinamide]",inhibition at 0.04 µM,50 to 80%
same,inhibition at 0.2 µM,50 to 80%
"CC(=O)c1c(C)c2cnc(Nc3ccc(N4CCN(CC(=O)NC5CC6(C5)CC(Nc5nc(C)ccc5C(=O)Nc5cccc(C)n5)C6)CC4)cn3)nc2n(C2CCCC2)c1=O (stereo not shown) [CPD-191, 2-((6-(2-(4-(6-((6-acetyl-8-cyclopentyl-5-methyl-7-oxo-7,8-dihydropyrido[2,3-d]pyrimidin-2-yl)amino)pyridin-3-yl)piperazin-1-yl)acetamido)spiro[3.3]heptan-2-yl)amino)-6-methyl-N-(6-methylpyridin-2-yl)nicotinamide]",inhibition at 0.04 µM,< 30%
same,inhibition at 0.2 µM,30 to 50%
"CC(=O)c1c(C)c2cnc(Nc3ccc(N4CCN(CC(=O)NC5CC6(C5)CC(Nc5nc(C)ccc5C(=O)Nc5cc(C)on5)C6)CC4)cn3)nc2n(C2CCCC2)c1=O (stereo not shown) [CPD-192, ((6-(2-(4-(6-((6-acetyl-8-cyclopentyl-5-methyl-7-oxo-7,8-dihydropyrido[2,3-d]pyrimidin-2-yl)amino)pyridin-3-yl)piperazin-1-yl)acetamido)spiro[3.3]heptan-2-yl)amino)-6-methyl-N-(5-methylisoxazol-3-yl)nicotinamide]",inhibition at 0.04 µM,< 30%
same,inhibition at 0.2 µM,< 30%
"CNc1ccc(C(=O)Nc2ccc(N(C)C)nn2)c(NC[C@H]2CC[C@@H](NC(=O)CN3CCN(c4ccc(Nc5ncc6c(C)c(C(C)=O)c(=O)n(C7CCCC7)c6n5)nc4)CC3)CC2)n1 [CPD-193, 2-(((cis-4-(2-(4-(6-((6-acetyl-8-cyclopentyl-5-methyl-7-oxo-7,8-dihydropyrido[2,3-d]pyrimidin-2-yl)amino)pyridin-3-yl)piperazin-1-yl)acetamido)cyclohexyl)methyl)amino)-N-(6-(dimethylamino)pyridazin-3-yl)-6-(methylamino)nicotinamide]",inhibition at 0.04 µM,50 to 80%
same,inhibition at 0.2 µM,50 to 80%
"CNc1ccc(C(=O)Nc2ccc(N(C)C)nn2)c(NC(=O)CN2CCN(c3ccc(Nc4ncc5c(C)c(C(C)=O)c(=O)n(C6CCCC6)c5n4)nc3)CC2)n1 [CPD-194, 2-(2-(4-(6-((6-acetyl-8-cyclopentyl-5-methyl-7-oxo-7,8-dihydropyrido[2,3-d]pyrimidin-2-yl)amino)pyridin-3-yl)piperazin-1-yl)acetamido)-N-(6-(dimethylamino)pyridazin-3-yl)-6-(methylamino)nicotinamide]",inhibition at 0.04 µM,< 30%
same,inhibition at 0.2 µM,< 30%
"CNc1ccc(C(=O)Nc2cn(C)c(C(C)C)n2)c(NC2CC3(CC(NC(=O)CN4CCN(c5ccc(Nc6ncc7c(C)c(C(C)=O)c(=O)n(C8CCCC8)c7n6)nc5)CC4)C3)C2)n1 (stereo not shown) [CPD-195, 2-((6-(2-(4-(6-((6-acetyl-8-cyclopentyl-5-methyl-7-oxo-7,8-dihydropyrido[2,3-d]pyrimidin-2-yl)amino)pyridin-3-yl)piperazin-1-yl)acetamido)spiro[3.3]heptan-2-yl)amino)-N-(2-isopropyl-1-methyl-1H-imidazol-4-yl)-6-(methylamino)nicotinamide]",inhibition at 0.04 µM,< 30%
same,inhibition at 0.2 µM,50 to 80%
"CNc1ccc(C(=O)Nc2cccc(C)n2)c(NC2CC(NC(=O)CN3CCN(c4ccc(Nc5ncc6c(C)c(C(C)=O)c(=O)n(C7CCCC7)c6n5)nc4)CC3)C2)n1 (stereo not shown) [CPD-196, 2-((3-(2-(4-(6-((6-acetyl-8-cyclopentyl-5-methyl-7-oxo-7,8-dihydropyrido[2,3-d]pyrimidin-2-yl)amino)pyridin-3-yl)piperazin-1-yl)acetamido)cyclobutyl)amino)-6-(methylamino)-N-(6-methylpyridin-2-yl)nicotinamide]",inhibition at 0.04 µM,< 30%
same,inhibition at 0.2 µM,30 to 50%
"CNc1ccc(C(=O)Nc2cc(C)n(C)n2)c(NC2CC(NC(=O)CN3CCN(c4ccc(Nc5ncc6c(C)c(C(C)=O)c(=O)n(C7CCCC7)c6n5)nc4)CC3)C2)n1 (stereo not shown) [CPD-197, 2-((3-(2-(4-(6-((6-acetyl-8-cyclopentyl-5-methyl-7-oxo-7,8-dihydropyrido[2,3-d]pyrimidin-2-yl)amino)pyridin-3-yl)piperazin-1-yl)acetamido)cyclobutyl)amino)-N-(1,5-dimethyl-1H-pyrazol-3-yl)-6-(methylamino)nicotinamide]",inhibition at 0.04 µM,< 30%
same,inhibition at 0.2 µM,30 to 50%
"CNc1ccc(C(=O)Nc2cc(C)on2)c(NC2CC(NC(=O)CN3CCN(c4ccc(Nc5ncc6c(C)c(C(C)=O)c(=O)n(C7CCCC7)c6n5)nc4)CC3)C2)n1 (stereo not shown) [CPD-198, 2-((3-(2-(4-(6-((6-acetyl-8-cyclopentyl-5-methyl-7-oxo-7,8-dihydropyrido[2,3-d]pyrimidin-2-yl)amino)pyridin-3-yl)piperazin-1-yl)acetamido)cyclobutyl)amino)-6-(methylamino)-N-(5-methylisoxazol-3-yl)nicotinamide]",inhibition at 0.04 µM,< 30%
same,inhibition at 0.2 µM,30 to 50%
"CNc1ccc(C(=O)Nc2ccc(N(C)C)nn2)c(NC2CCN(C(=O)CN3CCN(c4ccc(Nc5ncc6c(C)c(C(C)=O)c(=O)n(C7CCCC7)c6n5)nc4)CC3)C2)n1 (stereo not shown) [CPD-201, 2-((1-(2-(4-(6-((6-acetyl-8-cyclopentyl-5-methyl-7-oxo-7,8-dihydropyrido[2,3-d]pyrimidin-2-yl)amino)pyridin-3-yl)piperazin-1-yl)acetyl)pyrrolidin-3-yl)amino)-N-(6-(dimethylamino)pyridazin-3-yl)-6-(methylamino)nicotinamide]",inhibition at 0.04 µM,30 to 50%
same,inhibition at 0.2 µM,50 to 80%

# From patent US20260297081A1, “COMPOUNDS AND METHODS OF TREATING CANCERS” (Cullgen Inc., priority 2023, published 2026)
